Laboratory results from US12630510B2, “EP2 antagonist” (ONO PHARMACEUTICAL CO., LTD., priority 2019, dated 2026).

The compounds below were run against T1, human EP2 receptor (Homo sapiens, UniProt P43116) (assay: Experiment of measuring EP2 antagonistic activity using cells expressing prostanoid receptor (cAMP)). Conditions: CHO cells expressing human EP2 receptor; PGE2 10 nmol/L; cAMP quantified after 1 hour at room temperature; read-out: EP2_IC50.
T1 construct: expressed in transfected cells; host or cells: CHO cells
T1 sequence (P43116 whole entry): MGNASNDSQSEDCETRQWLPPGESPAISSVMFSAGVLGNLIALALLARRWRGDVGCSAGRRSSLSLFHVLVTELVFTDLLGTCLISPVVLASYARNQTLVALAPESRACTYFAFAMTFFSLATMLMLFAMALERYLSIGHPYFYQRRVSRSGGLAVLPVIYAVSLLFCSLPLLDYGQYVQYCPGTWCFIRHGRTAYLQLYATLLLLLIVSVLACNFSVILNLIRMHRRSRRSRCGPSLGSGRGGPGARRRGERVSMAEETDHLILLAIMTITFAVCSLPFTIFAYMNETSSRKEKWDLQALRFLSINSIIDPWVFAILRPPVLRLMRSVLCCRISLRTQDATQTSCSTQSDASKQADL
Assay type: cell-based
Procedure: CHO cells on each of which a human EP2 receptor had been expressed were prepared in accordance with the method by Nishigaki et al, (FEBS Letters, vol. 364, pp. 339-341, 1995) and were then cryopreserved in CELLBANKER2 (Nippon Zenyaku Kogyo Co., Ltd.) at a concentration of 1.5×10^7 cells/mL/vial. The CHO cells thus prepared were used in the experiment. The cells were thawed, and were then suspended in an assay medium (D-PBS containing 1 mmol/L IBMX, 2 μmol/L Diclofenac) at a concentration of 5×10^5 cells/mL. PGE2 alone having a final concentration of 10 nmol/L or a solution (10 μL) containing the PGE2 and a test compound was added to the cell suspension (10 μL) to initiate the reaction. After the reaction was performed at room temperature for 1 hour, the amount of cAMP in the cells was quantified in accordance with the method described in cAMP Gs Dynamic kit (CISBIO).
The antagonistic activity (IC50 value) of a test compound was calculated as a percentage of suppression of the reaction at 10 nM, which was a concentration at which a submaximal cAMP production activity was observed when PGE2 alone was employed. In this manner, an IC50 value was determined.
Cc1cc(OCCc2ccccc2)cc(C)c1C(=O)Nc1cc([C@H]2C[C@H]2C(=O)O)ccc1C(F)(F)F (racemic) [Example 11, rel-(1R,2S)-2-[3-{[2,6-Dimethyl-4-(2-phenylethoxy)benzoyl]amino}-4-(trifluoromethyl)phenyl]cyclopropanecarboxylic acid] gave an IC50 of 2.2 nM. For CCC(C)n1c(CCCc2ccccc2)ccc1C(=O)Nc1cc([C@H]2C[C@H]2C(=O)O)ccc1C(F)(F)F (relative stereo) [Example 1, rel-(1R,2S)-2-[3-({[1-sec-Butyl-5-(3-phenylpropyl)-1H-pyrrole-2-carbonyl]amino)-4-(trifluoromethyl)phenyl]cyclopropanecarboxylic acid], the IC50 was under 0.3 nM. CC[C@H](C)n1c(CCCc2ccccc2)ccc1C(=O)Nc1cc([C@H]2C[C@H]2C(=O)O)ccc1C(F)(F)F (relative stereo) [Example 2, rel-(1R,2S)-2-{3-[({1-[(2S)-2-Butanyl]-5-(3-phenylpropyl)-1H-pyrrol-2-yl}carbonyl)amino]-4-(trifluoromethyl)phenyl}cyclopropanecarboxylic acid] was tested, and the IC50 was 1.6 nM. CC[C@H](C)n1c(CCCc2ccccc2)ccc1C(=O)Nc1cc(C)cc([C@H]2C[C@H]2C(=O)O)c1 (relative stereo) [Example 2-1, rel-(1R,2S)-2-{3-[({1-[(2S)-2-Butanyl]-5-(3-phenylpropyl)-1H-pyrrol-2-yl}carbonyl)amino]-5-methylphenyl}cyclopropanecarboxylic acid] was tested, and the IC50 was 5.4 nM. With CC[C@H](C)n1c(CCCc2ccccc2)ccc1C(=O)Nc1cc(C)cc([C@@H]2C[C@H]2C(=O)O)c1 (relative stereo) [Example 2-2, rel-(1R,2R)-2-{3-[({1-[(2S)-2-Butanyl]-5-(3-phenylpropyl)-1H-pyrrol-2-yl}carbonyl)amino]-5-methylphenyl}cyclopropanecarboxylic acid] the IC50 was 33 nM. CC(C)n1c(CCCc2ccccc2)ccc1C(=O)Nc1cc([C@@H]2C[C@@H]2C(=O)O)ccc1C(F)(F)F [Example 3-1, (1S,2R)-2-[3-({[1-Isopropyl-5-(3-phenylpropyl)-1H-pyrrol-2-yl]carbonyl}amino)-4-(trifluoromethyl)phenyl]cyclopropanecarboxylic acid] showed an IC50 of 2.1 nM. CC(C)n1c(CCCc2ccccc2)ccc1C(=O)Nc1cc([C@@H]2C[C@H]2C(=O)O)ccc1C(F)(F)F [Example 3-2, (1R,2R)-2-[3-({[1-Isopropyl-5-(3-phenylpropyl)-1H-pyrrol-2-yl]carbonyl}amino)-4-(trifluoromethyl)phenyl]cyclopropanecarboxylic acid] gave an IC50 of 77 nM. In the case of CC[C@H](C)n1c(CCCc2ccccc2)ccc1C(=O)Nc1cc([C@H]2C[C@H]2C(=O)O)ccc1OC [Example 4, (1R,2S)-2-{3-[({1-[(2S)-2-Butanyl]-5-(3-phenylpropyl)-1H-pyrrol-2-yl}carbonyl)amino]-4-methoxyphenyl}cyclopropanecarboxylic acid], the IC50 is reported as 2.6 nM. In the case of CC[C@H](C)n1c(CCCc2ccccc2)ccc1C(=O)Nc1cc([C@@H]2C[C@@H]2C(=O)O)ccc1C(F)(F)F [Example 5, (1S,2R)-2-{3-[({1-[(2S)-2-Butanyl]-5-(3-phenylpropyl)-1H-pyrrol-2-yl}carbonyl)amino]-4-(trifluoromethyl)phenyl}cyclopropanecarboxylic acid], the IC50 is reported as 2.5 nM. In the case of CC[C@H](C)n1c(CCCc2ccccc2)ccc1C(=O)Nc1cc([C@H]2C[C@H]2C(=O)O)ccc1C(F)(F)F [Example 6, (1R,2S)-2-{3-[({1-[(2S)-2-Butanyl]-5-(3-phenylpropyl)-1H-pyrrol-2-yl}carbonyl)amino]-4-(trifluoromethyl)phenyl}cyclopropanecarboxylic acid], the IC50 is reported as under 0.3 nM. CC[C@H](C)n1c(CCCc2ccccc2)ccc1C(=O)Nc1cc([C@H]2C[C@H]2C(=O)O)ccc1Cl [Example 7, (1R,2S)-2-{3-[({1-[(2S)-2-Butanyl]-5-(3-phenylpropyl)-1H-pyrrol-2-yl}carbonyl)amino]-4-chlorophenyl}cyclopropanecarboxylic acid] was tested, and the IC50 was 0.3 nM. Work on CC[C@H](C)n1c(CCOCc2ccccc2)ccc1C(=O)Nc1cc([C@H]2C[C@H]2C(=O)O)ccc1C(F)(F)F [Example 8, (1R,2S)-2-{3-[({5-[2-(Benzyloxy)ethyl]-1-[(2S)-2-butanyl]-1H-pyrrol-2-yl}carbonyl)amino]-4-(trifluoromethyl)phenyl}cyclopropanecarboxylic acid] yielded an IC50 of 0.4 nM. CC[C@H](C)n1c(CCOc2cc(F)nc(Cl)c2)ccc1C(=O)Nc1cc([C@H]2C[C@H]2C(=O)O)ccc1C(F)(F)F [Example 10, (1R,2S)-2-[3-{[(1-[(2S)-2-Butanyl]-5-{2-[(2-chloro-6-fluoro-4-pyridinyl)oxy]ethyl}-1H-pyrrol-2-yl)carbonyl]amino}-4-(trifluoromethyl)phenyl]cyclopropanecarboxylic acid] gave an IC50 of 0.3 nM. Compound Cc1cc(CCCc2ccccc2)cc(C)c1C(=O)Nc1cc([C@H]2C[C@H]2C(=O)O)ccc1C(F)(F)F [Example 12, (1R,2S)-2-[3-{[2,6-Dimethyl-4-(3-phenylpropyl)benzoyl]amino}-4-(trifluoromethyl)phenyl]cyclopropanecarboxylic acid] has an IC50 of 1 nM. Cc1cc(OCCc2ccc(F)cc2F)cc(C)c1C(=O)Nc1cc([C@H]2C[C@H]2C(=O)O)ccc1C(F)(F)F [Example 13, (1R,2S)-2-[3-({4-[2-(2,4-Difluorophenyl)ethoxy]-2,6-dimethylbenzoyl}amino)-4-(trifluoromethyl)phenyl]cyclopropanecarboxylic acid] was tested, and the IC50 was 4.7 nM. Cc1cc(OCCc2ccccc2)cc(C)c1C(=O)Nc1cc([C@H]2C[C@H]2C(=O)O)c(Cl)cc1C(F)(F)F [Example 15, (1R,2S)-2-[2-Chloro-5-{[2,6-dimethyl-4-(2-phenylethoxy)benzoyl]amino}-4-(trifluoromethyl)phenyl]cyclopropanecarboxylic acid] showed an IC50 of under 0.3 nM. Cc1cc(OCCc2ccccc2)cc(C)c1C(=O)Nc1cc([C@@H]2C[C@@H]2C(=O)O)ccc1C(F)(F)F [Example 19, (1S,2R)-2-[3-{[2,6-Dimethyl-4-(2-phenylethoxy)benzoyl]amino}-4-(trifluoromethyl)phenyl]cyclopropanecarboxylic acid] was tested, and the IC50 was 12 nM. Compound Cc1cc(OCCc2cnn(C)c2)cc(C)c1C(=O)Nc1cc([C@H]2C[C@H]2C(=O)O)ccc1C(F)(F)F [Example 20, (1R,2S)-2-[3-({2,6-Dimethyl-4-[2-(1-methyl-1H-pyrazol-4-yl)ethoxy]benzoyl}amino)-4-(trifluoromethyl)phenyl]cyclopropanecarboxylic acid] has an IC50 of 28 nM. Cc1cc(OCCC2CC2)cc(C)c1C(=O)Nc1cc([C@H]2C[C@H]2C(=O)O)ccc1C(F)(F)F [Example 20-1, (1R,2S)-2-[3-{[4-(2-Cyclopropylethoxy)-2,6-dimethylbenzoyl]amino}-4-(trifluoromethyl)phenyl]cyclopropanecarboxylic acid] was tested, and the IC50 was 5 nM. In the case of Cc1cc(Oc2cncc(Cl)n2)cc(C)c1C(=O)Nc1cc([C@H]2C[C@H]2C(=O)O)ccc1C(F)(F)F [Example 21, (1R,2S)-2-[3-({4-[(6-Chloro-2-pyrazinyl)oxy]-2,6-dimethylbenzoyl}amino)-4-(trifluoromethyl)phenyl]cyclopropanecarboxylic acid], the IC50 is reported as 8.1 nM. With Cc1cc(OCCc2ccccc2)cc(C)c1C(=O)Nc1cc(CCC(=O)O)ccc1C(F)(F)F [Example 24, 3-[3-f{[2,6-Dimethyl-4-(2-phenylethoxy)benzoyl]amino}-4-(trifluoromethyl)phenyl]propanoic acid] the IC50 was 5.2 nM. Cc1cc(OCCc2ccccc2)cc(C)c1C(=O)Nc1cc(C(C)CC(=O)O)ccc1C(F)(F)F (stereo not drawn) [Example 24-1, 3-[3-{[2,6-Dimethyl-4-(2-phenylethoxy)benzoyl]amino}-4-(trifluoromethyl)phenyl]butanoic acid] was tested, and the IC50 was 20 nM. Cc1cc(OCCc2ccccc2)cc(C)c1C(=O)Nc1cc(CC(C)C(=O)O)ccc1C(F)(F)F (stereo not drawn) [Example 24-2, 3-[3-f{[2,6-Dimethyl-4-(2-phenylethoxy)benzoyl]amino}-4-(trifluoromethyl)phenyl]-2-methylpropanoic acid] gave an IC50 of 12 nM. Cc1cc(OCCc2ccccc2)cc(C)c1C(=O)Nc1cc([C@H]2CC[C@H]2C(=O)O)ccc1C(F)(F)F [Example 25, (1R,2S)-2-[3-{[2,6-Dimethyl-4-(2-phenylethoxy)benzoyl]amino}-4-(trifluoromethyl)phenyl]cyclobutanecarboxylic acid] gave an IC50 of 2.2 nM. Cc1cc(OCCc2ccccc2)cc(C)c1C(=O)Nc1cc([C@H]2C[C@@]2(C)C(=O)O)ccc1C(F)(F)F [Example 26, (1R,2R)-2-[3-{[2,6-Dimethyl-4-(2-phenylethoxy)benzoyl]amino}-4-(trifluoromethyl)phenyl]-1-methylcyclopropanecarboxylic acid] gave an IC50 of 27 nM. For CC(C)c1cc(OCc2ccccc2)ccc1C(=O)Nc1cc([C@H]2C[C@H]2C(=O)O)ccc1C(F)(F)F [Example 28, (1R,2S)-2-[3-{[4-(Benzyloxy)-2-isopropylbenzoyl]amino}-4-(trifluoromethyl)phenyl]cyclopropanecarboxylic acid], the IC50 was 4 nM. CC(C)c1c(OCc2ccccc2)cccc1C(=O)Nc1cc([C@H]2C[C@H]2C(=O)O)ccc1C(F)(F)F [Example 29-1, (1R,2S)-2-[3-{[3-(Benzyloxy)-2-isopropylbenzoyl]amino}-4-(trifluoromethyl)phenyl]cyclopropanecarboxylic acid] gave an IC50 of 11 nM.
